Test system: 885512-296-R-J2-PDC complex spheroid viability
Experiment: Anticancer human tumor 885512-296-R-J2-PDC patient-derived breast carcinoma cell line growth inhibition [GQUAD]
Details: for IC50: curve of first compound; for viability, T/C: stronger effect = lower value
Description: DNA G-quadruplex Stabilizer Agents in Combinations in Complex Spheroids
A high-throughput screen of multi-cell type tumor spheroids was designed to identify active combinations of DNA G-quadruplex stabilizer agents and targeted small molecules. Complex spheroids include a stromal component modeled by human endothelial cells (HUVEC) and fibroblasts modeled by human mesenchymal stem cells (MSCs). The concentration ranges selected for each drug and investigational agent were based upon clinically achievable concentrations if the clinical Cmax of the agent was known.
Compounds. The drugs and investigational agents: pidnarulex (CX-5461; NSC782164), APTO-253 (NSC789042), BRACO-19 (NSC847499), peposertib (NSC802822), ceralasertib (NSC780249), elimusertib (NSC800525), camonsertib (NSC841442), AZD-1390 (NSC803789), olaparib (NSC753686), talazoparib (NSC767125), ART-558 (NSC835418), sotorasib (NSC818433), MRTX-1133 (NSC836407), SN-38 (NSC673596), topotecan (NSC609699), etoposide (NSC141540), doxorubicin (NSC123127), gemcitabine (NSC613327), 5-fluorouracil (NSC19893), paclitaxel (NSC125973), vemurafenib (NSC761431), panobinostat (NSC761190), R-306465 (JNJ-16241199; NSC773264), adavosertib (NSC754352), TP-3654 (NSC805149), carboplatin (NSC241240), KSQ-4279 (NSC840948), and staurosporine (NSC755774) were obtained from the National Cancer Institute (NCI) Developmental Therapeutics Program Chemical Repository (34). The FDA-approved anticancer drug set is available from the NCI Developmental Therapeutics Program. […] The stock solutions were prepared in dimethyl sulfoxide (DMSO, Sigma-Aldrich, St. Louis, MO, cat. D2650) at 800-fold the tested concentration and stored at -70 degrees C prior to their use. All drugs and investigational agents were tested over a range starting from a high concentration at or near the clinical Cmax and decreasing in half-log increments. If the clinical Cmax for an agent had not been determined, the highest concentration tested was 10 microM.
2.3 Cell Culture. All cells were maintained in an incubator at 37 degrees C and 5% CO2 with 95% humidity. The PDC lines were cultured according to standard operating procedures established by the NCI PDMR. All PDCs were thawed and cultured in Matrigel-coated flasks prepared with a working solution of 1X Ham's F-12 nutrient mix, without supplementation (Invitrogen, cat. 11765054), 100 U/mL penicillin-streptomycin (Invitrogen, cat. 15140122), and 2.5% Matrigel (Corning Inc., cat. 354248) for the first three passages. The 857933-349-R-J2-PDC line was cultured in 6C/Colon 1B media, which includes advanced DMEM/F-12 (Thermo Fisher Scientific, cat. 12634028), 10 mM HEPES (Thermo Fisher Scientific, cat. 15630080), 1X GlutaMAX supplement (Thermo Fisher Scientific, cat. 35050061), 0.1 mg/mL primocin (InvivoGen, cat. ant-pm-2), 10% defined fetal bovine serum, heat inactivated (HyClone Laboratories Inc., cat. SH30070.03HI), 50% L-WRN conditioned media (ATCC, cat. CRL-3276), 1.25 mM N-Acetyl-L-cysteine (Sigma-Aldrich, cat. A9165), 10 mM nicotinamide (Sigma-Aldrich, cat. N0636), 1X B-27 supplement (Thermo Fisher Scientific, cat. 17504044), 1X N-2 supplement (Thermo Fisher Scientific, cat. 17502048), 10 microM Y-27632 dihydrochloride (Tocris Bioscience, cat. 1254), and 50 ng/mL human EGF recombinant protein (Thermo Fisher Scientific, cat. PHG0311). The 485176-168-R4-J1-PDC line was cultured in Panc media, which includes all 6C/Colon 1B media components plus 100 ng/mL human FGF-10 (Thermo Fisher Scientific, cat. 100-26), 500 nM SB-431542 (Selleckchem, cat. S1067), and gastrin (Tocris, cat. 3006).
[…]

[1] = second compound 0.0316 µM, first compound 0.0316 µM
[2] = second compound 0.0316 µM, first compound 0.316 µM
[3] = second compound 0.1 µM, first compound 0.0316 µM
[4] = second compound 0.1 µM, first compound 0.316 µM
[5] = second compound 0.316 µM, first compound 0.0316 µM
[6] = second compound 0.316 µM, first compound 0.316 µM
[7] = second compound 1 µM, first compound 0.0316 µM
[8] = second compound 1 µM, first compound 0.316 µM
[9] = second compound 3.16 µM, first compound 0.0316 µM
[10] = second compound 3.16 µM, first compound 0.316 µM
[11] = second compound 10 µM, first compound 0.0316 µM
[12] = second compound 10 µM, first compound 0.316 µM
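Note: spheroids exposed to the compounds for one week.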
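Throughout, for viability, T/C: percent of tumor spheroid viability relative to DMSO vehicle control wells.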

## CC[C@@]1(O)C(=O)OCc2c1cc1n(c2=O)Cc2cc3c(CN(C)C)c(O)ccc3nc2-1 + Cc1[nH]c2ccc(F)cc2c1-c1nc2c3cccnc3c3ncccc3c2[nH]1
Second compound 0.0316 µM
  IC50: 26.3 nM
Second compound 0.1 µM
  IC50: 29.7 nM
Second compound 0.316 µM
  IC50: 29.9 nM
Second compound 1 µM
  IC50: 19.8 nM
Second compound 3.16 µM
  IC50: < 0.999 nM
Second compound 10 µM
  IC50: < 0.999 nM
Second compound 0.0316 µM, first compound 0.000999 µM
  viability, T/C: 105%
Second compound 0.0316 µM, first compound 0.00316 µM
  viability, T/C: 88.5%
Second compound 0.0316 µM, first compound 0.00999 µM
  viability, T/C: 89.9%
[1]
  viability, T/C: 41.7%
Second compound 0.0316 µM, first compound 0.0999 µM
  viability, T/C: 14.9%
[2]
  viability, T/C: 6.49%
Second compound 0.1 µM, first compound 0.000999 µM
  viability, T/C: 110%
Second compound 0.1 µM, first compound 0.00316 µM
  viability, T/C: 101%
Second compound 0.1 µM, first compound 0.00999 µM
  viability, T/C: 98.5%
[3]
  viability, T/C: 46.9%
Second compound 0.1 µM, first compound 0.0999 µM
  viability, T/C: 10.7%
[4]
  viability, T/C: 4.48%
Second compound 0.316 µM, first compound 0.000999 µM
  viability, T/C: 96%
Second compound 0.316 µM, first compound 0.00316 µM
  viability, T/C: 101%
Second compound 0.316 µM, first compound 0.00999 µM
  viability, T/C: 87.3%
[5]
  viability, T/C: 48.3%
Second compound 0.316 µM, first compound 0.0999 µM
  viability, T/C: 11.2%
[6]
  viability, T/C: 3.51%
Second compound 1 µM, first compound 0.000999 µM
  viability, T/C: 68.2%
Second compound 1 µM, first compound 0.00316 µM
  viability, T/C: 74.6%
Second compound 1 µM, first compound 0.00999 µM
  viability, T/C: 72%
[7]
  viability, T/C: 35.7%
Second compound 1 µM, first compound 0.0999 µM
  viability, T/C: 9.71%
[8]
  viability, T/C: 3.76%
Second compound 3.16 µM, first compound 0.000999 µM
  viability, T/C: 14.8%
Second compound 3.16 µM, first compound 0.00316 µM
  viability, T/C: 23.3%
Second compound 3.16 µM, first compound 0.00999 µM
  viability, T/C: 14%
[9]
  viability, T/C: 6.97%
Second compound 3.16 µM, first compound 0.0999 µM
  viability, T/C: 2.52%
[10]
  viability, T/C: 2.01%
Second compound 10 µM, first compound 0.000999 µM
  viability, T/C: 1.29%
Second compound 10 µM, first compound 0.00316 µM
  viability, T/C: 2.13%
Second compound 10 µM, first compound 0.00999 µM
  viability, T/C: 1.51%
[11]
  viability, T/C: 1.58%
Second compound 10 µM, first compound 0.0999 µM
  viability, T/C: 1.12%
[12]
  viability, T/C: 0.82%

## Nc1ccn(C2OC(CO)C(O)C2(F)F)c(=O)n1 (centres undefined) + Cc1[nH]c2ccc(F)cc2c1-c1nc2c3cccnc3c3ncccc3c2[nH]1
Second compound 0.0316 µM
  IC50: < 31.6 nM
Second compound 0.1 µM
  IC50: < 31.6 nM
Second compound 0.316 µM
  IC50: < 31.6 nM
Second compound 1 µM
  IC50: < 31.6 nM
Second compound 3.16 µM
  IC50: < 31.6 nM
Second compound 10 µM
  IC50: < 31.6 nM
[1]
  viability, T/C: 14.6%
Second compound 0.0316 µM, first compound 0.1 µM
  viability, T/C: 3.03%
[2]
  viability, T/C: 2.43%
Second compound 0.0316 µM, first compound 1 µM
  viability, T/C: 3.01%
Second compound 0.0316 µM, first compound 3.16 µM
  viability, T/C: 3.2%
Second compound 0.0316 µM, first compound 10 µM
  viability, T/C: 2.56%
[3]
  viability, T/C: 16.3%
Second compound 0.1 µM, first compound 0.1 µM
  viability, T/C: 3.26%
[4]
  viability, T/C: 3.63%
Second compound 0.1 µM, first compound 1 µM
  viability, T/C: 3.04%
Second compound 0.1 µM, first compound 3.16 µM
  viability, T/C: 3%
Second compound 0.1 µM, first compound 10 µM
  viability, T/C: 3.74%
[5]
  viability, T/C: 14.6%
Second compound 0.316 µM, first compound 0.1 µM
  viability, T/C: 3.44%
[6]
  viability, T/C: 3.02%
Second compound 0.316 µM, first compound 1 µM
  viability, T/C: 2.57%
Second compound 0.316 µM, first compound 3.16 µM
  viability, T/C: 2.96%
Second compound 0.316 µM, first compound 10 µM
  viability, T/C: 3.36%
[7]
  viability, T/C: 8.48%
Second compound 1 µM, first compound 0.1 µM
  viability, T/C: 2.45%
[8]
  viability, T/C: 2.51%
Second compound 1 µM, first compound 1 µM
  viability, T/C: 2.76%
Second compound 1 µM, first compound 3.16 µM
  viability, T/C: 2.94%
Second compound 1 µM, first compound 10 µM
  viability, T/C: 2.65%
[9]
  viability, T/C: 2.21%
Second compound 3.16 µM, first compound 0.1 µM
  viability, T/C: 1.43%
[10]
  viability, T/C: 1.74%
Second compound 3.16 µM, first compound 1 µM
  viability, T/C: 1.98%
Second compound 3.16 µM, first compound 3.16 µM
  viability, T/C: 1.96%
Second compound 3.16 µM, first compound 10 µM
  viability, T/C: 1.86%
[11]
  viability, T/C: 1.33%
Second compound 10 µM, first compound 0.1 µM
  viability, T/C: 1.29%
[12]
  viability, T/C: 1.17%
Second compound 10 µM, first compound 1 µM
  viability, T/C: 1.35%
Second compound 10 µM, first compound 3.16 µM
  viability, T/C: 1.44%
Second compound 10 µM, first compound 10 µM
  viability, T/C: 1.08%

Source: PubChem BioAssay AID2060490 (Molecular Pharmacology Branch, DTP, NCI, 2025)
